# Experimental data published in patent US6710060B2, “4-hydroxypiperidine derivatives having antiarrhythmic activity” (Mochida Pharmaceutical Co., Ltd., priority 1999, dated 2004).
# Where a name gives a salt, the structure may show the parent alone. Read-outs that look alike come from different tables or passages of the source.
# Experiments:
# [1] = test system: Electrocardiogram in Rats; experiment: Effect on electrocardiogram in rats; type: in vivo; settings: 5 mg/kg intravenous, anesthetized rat, two minutes after administration
# Method: [Effect on Electrocardiogram in Rats]
# After anesthetizing with 1.5 g/kg (s.c.) of urethane, a rat was fixed on a warm plate at its supination. Polyethylene tubes for administering a test compound and for measuring the blood pressure were inserted into and fixed to the jugular vein and femoral artery, respectively. The blood pressure of the artery was measured using a pressure transducer. An electrode was attached to the animal, electrocardiograms were led by the standard lead II. The heart rate was measured by using a heart rate counter. The test compound was given by intravenous injection when the blood pressure and heat rate had been stabilized after the operation. […] Each parameter on the electrocardiogram was processed using an analysis software running on the personal computer to calculate the rate of change as compared with that before administration.
# [2] = test system: isolated cardiac muscle cells; experiment: Suppression activity of veratrine-induced contracture of isolated cardiac muscle; type: cell-based; settings: Cardiac muscle cell, 5 min; rat isolated cardiac muscle cells, veratrine 100 gg/mL, 5 minutes after addition, probit analysis; read-out: IC50 (concentration of the test compound when half of the cells were contracted)
# Method: [Suppression Activity of Veratrine-Induced Contracture of Isolated Cardiac Muscle]
# Rats were anesthetized with 40 mg/kg (i.p.) of pentobarbital sodium and held in supine postion, and heparin was injected through the jugular vein. […] A polyethylene tube filled with Krebs-Ringer-HEPES (KRH) solution (pH 7.4) containing 1 mM CaCl2 was inserted through the aorta in retrograde manner, and the tube was fixed. The heart was extracted simultaneously with perfusion of the KRH solution at a hydraulic pressure of 70 cm water column. After thoroughly flushing the remaining blood by spontaneous contraction of the heart, stroke of the heart was halted by perfusion of the Ca^2+ free KRH solution for 10 minutes. The perfusion solutions described above were used after oxygenation with a mixed gas containing 95% O2 and 5% CO2 and keeping at a temperature of 37° C. Then, a KRH solution containing 25 μM CaCl2, 0.06% collagenase and 0.1% albumin was perfused for 20 minutes at 37° C. until the heart was soften. The ventricles were cut into pieces in the collagenase solution at 37° C., followed by an enzyme treatment for 10 minutes while aerating the solution with the mixed gas of 95% O2/5% CO2. The cells were dispersed by pipetting, and connective tissues were removed from the dispersed cells by filtering with a stainless steel mesh. After halting the enzyme reaction by adding albumin in the filtrate, the supernatant was discarded by centrifugation. The cells were suspended in the KRH solution containing 25 μM CaCl2 and 1% albumin, and the Ca^2+ concentration was increased stepwise by sequentially adding the CaCl2 solution in the suspension to a final concentration of 0.5 mM. A pellet of the cells was obtained by centrifugation after allowing the suspension to stand for 10 minutes. The pellet of the cells was laid on a column (10 cm in height and 15 mm in diameter) filled with the KRH solution containing 1 mM CaCl2 and 2% albumin, and the column was allowed to stand for 5 to 10 minutes. The supernatant was gently removed, and the number of rod-shaped cells in the precipitated cells was counted. The cells were re-suspended in the KRH solution containing 1 mM CaCl2 and 0.1% albumin, and pipetted into each well of a 48 well multi-plate (3548, COSTER) coated with poly-L-lysine so that each well contains 0.5 mL of the cell suspension with 1×10^4 cells/well. The suspension in each well was aerated with a mixed gas of 95% O2/5% CO2 at 37° C. for 1 hour to allow the cells to adhere on the bottom of the well. […] Then, the medium was replaced with a KRH solution containing a test compound, 0.025% lactic acid and 1 mM CaCl2, followed by aerating with a mixed gas containing 95% O2/5% CO2 at 37° C. for 30 minutes. After taking a photograph under a microscope, a KRH solution containing veratrine, 0.025% lactic acid and 1 mM CaCl2 was added to each well so that the final concentration of veratrin becomes 100 gg/mL, followed by taking a photograph of morphological changes of the cells after 5 minutes passed from the addition. A change from the rod-shape cell to a spherical cell was defined as contraction by veratrine. Veratrine in this concentration can contract all the cells. The concentration of the test compound when half of the cells were contracted was defined as IC50 (μmol/L) that can be calculated by a probit analysis.
# [3] = test system: Ischemia-Reperfusion Induced Arrythmia Model in Rats; experiment: Suppression effect on ischemia-reperfusion induced arrythmia in rats; type: in vivo, rat
# Method: [Suppression Effect on Ischemia-Reperfusion Induced Arrythmia in Rats]
# The test compounds were administered to rats starved from a day before by gavage at a dosage of 10 mL/kg under an awaken condition. The rats were anesthetized with 60 mg/kg (i.p.) of sodium pentobarbital after 35 minutes passed from the administration, and were fixed on a warmed sheet in supine position. The body temperature was kept at 37° C. during the experiment, and artificial respiration was started under a condition of 15 mL/Kg and 55 strokes/minutes. […] Then, the left chest was open, and the left major coronary artery at an atrium side was sewed using a needle with a thread in order to ligate the coronary artery. After stabilizing for about 10 minutes (after 60 minutes passed from the administration), the coronary artery was ligated for 5 minutes, and re-perfused for 10 minutes thereafter. The ligation of the coronary artery was conducted by inserting a suture through a snare made of a polyethylene tube and pulling the both ends of the suture, followed by pressing the snare onto the heart. The re-perfusion was conducted by removing the snare. The aortic blood pressure was measured with a pressure transducer. An electrocardiogram was led by a standard lead II. […] After the completion of the experiments, generation of ventricular fibrillation was confirmed for each individual using an analysis software running on the personal computer, and incidence (%) of the ventricular fibrillation was determined for each administration group.
# [4] = oral gavage once a day for 14 days, 6-week aged female rats
# [5] = Table 2-2, 5 mg/kg by gavage, solvent group 57.1
Compound,PQ Distance (rate of change) [1],QRS Width (rate of change) [1],IC50 [2] [nM],"Incidence (%) of the ventricular fibrillation [3, 5] [%]",also measured
"CCCCOc1ccc(N(C)CCC2(O)CCN(Cc3ccccc3)CC2)cc1 [Example 146, 1-benzyl-4-[2-[N-(4-n-butoxyphenyl)-N-methylamino]ethyl]piperidin-4-ol dihydrochloride]",— (The rate of change at two minutes after administration is 15% or less as compared with that before administration.),— (The rate of change at two minutes after administration is 15% or less as compared with that before administration.),1200,–,"Incidence (%) of the ventricular fibrillation ([3]; Table 2-1, 5 mg/kg by gavage, ligation 60 min after administration, solvent group 63.6): 30.0%; Incidence (%) of the ventricular fibrillation ([3]; Table 2-1, 10 mg/kg by gavage, solvent group 63.6): 11.1%; Incidence (%) of the ventricular fibrillation ([3]; Table 2-1, 20 mg/kg by gavage, solvent group 63.6): 0.0%; daily dosage at which no fatal cases were observed (female Crj(SD)IGS rats; [4]): ≤ 100 mg/kg"
"CCCCOc1ccc(N(C)CCC2(O)CCN(CCc3ccc(F)cc3)CC2)cc1 [Example 176, 4-[2-[N-(4-n-butoxyphenyl)-N-methylamino]ethyl]-1-[2-(4-fluorophenyl)ethyl]piperidin-4-ol dihydrochloride]",— (The rate of change at two minutes after administration is 15% or less as compared with that before administration.),— (The rate of change at two minutes after administration is 15% or less as compared with that before administration.),900,–,–
"CCCCOc1ccc(N(C)CCC2(O)CCN(CCc3ccc(F)cc3F)CC2)cc1 [Example 183, 4-[2-[N-(4-n-butoxyphenyl)-N-methylamino]ethyl]-1-[2-(2,4-difluorophenyl)ethyl]piperidin-4-ol dihydrochloride]",–,–,1000,–,–
"CCCCOc1ccc(N(C)CC2(O)CCN(Cc3ccccc3)CC2)cc1 [Example 210, 1-benzyl-4-[N-(4-n-butoxyphenyl)-N-methylamino]-methylpiperidin-4-ol monomaleate]",–,–,900,–,–
"CC(C)Oc1ccc(N(C)CCC2(O)CCN(Cc3ccc(Br)cc3)CC2)cc1 [Example 220, 1-(4-bromophenylmethyl)-4-[2-[N-methyl-N-(4-isopropoxyphenyl)amino]ethyl]piperidin-4-ol dihydrochloride]",–,–,700,–,–
"CC(C)Oc1ccc(N(C)CCC2(O)CCN(Cc3ccc(C(F)(F)F)cc3)CC2)cc1 [Example 221, 4-[2-[N-methyl-N-(4-isopropoxyphenyl)amino]ethyl]-1-[4-(trifluoromethyl)phenylmethyl]piperidin-4-ol dihydrochloride]",–,–,300,–,–
"COC(=O)c1ccc(CN2CCC(O)(CCN(C)c3ccc(OC(C)C)cc3)CC2)cc1 [Example 233, 1-[4-(methoxycarbonyl)phenylmethyl]-4-[2-[N-methyl-N-(4-isopropoxyphenyl)amino]ethylipiperidin-4-oldihydrochloride]",— (The rate of change at two minutes after administration is 15% or less as compared with that before administration.),— (The rate of change at two minutes after administration is 15% or less as compared with that before administration.),–,28.6,"daily dosage at which no fatal cases were observed (female Crj(SD)IGS rats; female, Crj(SD)IGS, rat, in vivo, po, 14 days): ≤ 50 mg/kg"
"CC(C)Oc1ccc(N(C)CCC2(O)CCN(Cc3ccc(OC(F)(F)F)cc3)CC2)cc1 [Example 236, 4-[2-[N-methyl-N-(4-isopropoxyphenyl)amino]ethyl]-1-(4-trifluoromethoxyphenylmethyl)piperidin-4-ol dihydrochloride]",–,–,300,–,–
"CC(C)Oc1ccc(N(C)CCC2(O)CCN(Cc3ccc(Br)cc3F)CC2)cc1 [Example 240, 1-(4-bromo-2-fluorophenylmethyl)-4-[2-[N-methyl-N-(4-isopropoxyphenyl)amino]ethyl]piperidin-4-ol dihydrochloride]",— (The rate of change at two minutes after administration is 15% or less as compared with that before administration.),— (The rate of change at two minutes after administration is 15% or less as compared with that before administration.),700,0.0,–
"CC(C)Oc1ccc(N(C)CCC2(O)CCN(C(c3ccccc3)c3ccccc3)CC2)cc1 [Example 278, 1-diphenylmethyl-4-[2-[N-methyl-N-(4-isopropoxyphenyl)-amino]ethyl]piperidin-4-ol dihydrochloride]",— (The rate of change at two minutes after administration is 15% or less as compared with that before administration.),— (The rate of change at two minutes after administration is 15% or less as compared with that before administration.),300,0.0,daily dosage at which no fatal cases were observed (female Crj(SD)IGS rats; [4]): ≤ 20 mg/kg
